The values that follow come from patent publication US20130165489A1, “Small Molecule Modulators of HIV-1 Capsid Stability and Methods Thereof” (The Trustees of the University of Pennsylvania, priority 2010, published 2013).

One may read the CC50 as the concentration that lowers cell viability or growth by half.

Entries after “also recorded” stand apart in the source; their conditions may differ.

The subject of data set [1] is Vero cells. As to conditions: over the concentration range tested.
The next data set concerns DENV4. Briefly: CPE assay, DENV4. It is filed as cell-based. The conditions noted are these: Dengue virus, DENV4, Vero C1008; Vero E6 cells; 3 replicates.
The subject of data set [2] is recombinant luciferase-expressing HIV-1 bearing the envelope glycoprotein of the HIV-1YU-2 strain. The data set is described as follows: Single-round infection assay, HIV-1 with YU-2 envelope on Cf2Th-CCR5 cells. As to conditions: Human immunodeficiency virus 1, Cf2Th-CCR5, read-out: IC50 against HIV-1 (single-round infection).
Data set [3] deals with Vero cells. The format is cell-based. As to conditions: at 100 μM; MTT or renilla luciferase cellular assay. On the procedure: (§1) The activity of CMPD-A against a high-priority flaviviral pathogen, West Nile virus (WNV), was evaluated. The compound was tested in a West Nile Virus, virus-like particle (VLP) assay, which is a 24 hr assay on Vero cells using a firefly luciferase reporter to measure viral replication activity. In these tests IC50 values of 30 (±13) μM were obtained, with no toxicity at 100 μM using either both MTT or a renilla luciferase cellular assay (FIG. 16).

The next data set relates to DENV3. Briefly: CPE assay, DENV3. It is filed as cell-based. As to conditions: Dengue virus, DENV3, Vero C1008; Vero E6 cells; 3 replicates.
The subject of data set [4] is HIV-1 92BR030 (subtype B clinical isolate). Briefly: Anti-HIV efficacy in human PBMCs, isolate 92BR030. The conditions noted are these: primary PBMCs. It is filed as cell-based. On the procedure: HIV human peripheral blood mononuclear cell (PBMC) assays were performed as described previously (Lanier et al., 2010, Antimicrob. Agents Chemother. 54:2901-09; Ptak et al., 2008, Antimicrob. Agents Chemother. 52:1302-17). Briefly, fresh PBMCs, seronegative for HIV and hepatitis B virus (HBV), were isolated from blood samples of the screened donors (Biological Specialty Corporation, Colmar, Pa.) by using lymphocyte separation medium (LSM; density, 1.078±0.002 g/ml; Cellgro; Mediatech, Inc.) by following the manufacturer's instructions. Cells were stimulated by incubation in 4 μg/mL phytohemagglutinin (PHA; Sigma) for 48 to 72 h. Mitogenic stimulation was maintained by the addition of 20 U/mL recombinant human interleukin-2 (rhIL-2; R&D Systems, Inc.) to the culture medium. PHA-stimulated PBMCs from at least two donors were pooled, diluted in fresh medium, and added to 96-well plates at 5×10^4 cells/well. Cells were infected (final multiplicity of infection [MOI] of ≅0.1) in the presence of 9 different concentrations of test compounds (triplicate wells/concentration) and incubated for 7 days. To determine the level of virus inhibition, cell-free supernatant samples were collected for analysis of reverse transcriptase activity (Buckheit Jr., et al., 1991, AIDS Res. Hum. Retroviruses 7:295-302). Following removal of supernatant samples, compound cytotoxicity was measured by the addition of 3-(4,5-dimethylthiazol-2-yl)-5-(3-carboxymethoxyphenyl)-2-(4-sulfophenyl)-2H-tetrazolium (MTS; CellTiter 96 reagent; Promega) by following the manufacturer's instructions.
79:6089-6101; Jagodzinski et al., 2000, J. Clin. Microbiol. 38:1247-49; Michael et al., 1999, J. Clin. Microbiol. 37:2557-63 and Vahey et al., 1999, J. Clin. Microbiol. 37:2533-37); HIV-1 Group M isolate 931N101 (Subtype C, CCR5-tropic) from Dr. Robert Bollinger and the UNAIDS Network for HIV Isolation and Characterization (Gao et al., 1994, AIDS Res. Hum. Retroviruses 10:1359-68); HIV-1 Group M isolate CMUO8 (Subtype E, CXCR4-tropic) from Dr. Kenrad Nelson and the UNAIDS Network for HIV Isolation and Characterization (Gao et al., 1994, AIDS Res. Hum. Retroviruses 10:1359-68); HIV-1 Group M isolate G3 (Subtype G, CCR5-tropic) from Alash'le Abimiku (Abimiku et al., 1994, Aids Res. Hum. Retrovir. 10:1581-83); HIV-1 Group 0 isolate BCF02 (CCR5-tropic) from Sentob Saragosti, Françoise Brun-Vézinet, and François Simon (Loussertajaka et al., 1995, J. Virol. 69:5640-49); and SIV isolate Mac251 from Dr. Ronald Desrosiers (Daniel et al., 1985, Science 228:1201-04).

The next data set relates to HIV-1IIIB. The data set is described as follows: Anti-HIV efficacy in P4-R5 MAGI cells. The format is cell-based. As to the method: P4-R5 MAGI cells (NIH AIDS Research & Reference Reagent Program, catalog #3580) were maintained in Dulbecco's Modified Eagle's Media (DMEM) supplemented with 10% fetal bovine serum (FBS), sodium bicarbonate (0.05%), antibiotics (penicillin, streptomycin, and kanamycin at 40 μg/mL each), and puromycin (1 μg/mL). Initial studies were performed using the HIV-1-susceptible P4-R5 MAGI reporter cell line. HIV-1 infection of these cells (which express CD4, CXCR4, and CCR5) results in LTR-directed β-galactosidase expression, which can be readily and accurately quantitated. Approximately 18 h prior to the experiment, P4-R5 MAGI cells were plated at a concentration of 1.2×10^4 cells/well in a flat-bottom 96-well plate. On the day of the experiment, cells were infected in quadruplicate with HIV-1 strain IIIB (Advanced Biotechnologies, Inc., Columbia, Md.) in the presence or absence of putative CA inhibitors at the indicated concentrations. After 48 h incubation at 37° C., cells were assayed for infection using the Galacto-Star One-Step β-Galactosidase Reporter Gene Assay System (Applied Biosystems, Bedford, Mass.).

The test system of a further data set is DENV (serotypes 1-4). Briefly: CPE assay, Dengue serotypes 1-4. The format is cell-based, Dengue virus. The conditions noted are these: Dengue virus; Vero cells; read-out: average half-maximal inhibitory concentration over DENV serotypes 1-4.
The next data set can be described thus: in vitro. The conditions noted are these: hamster. The format is cell-based.
Another data set relates to producer cells (293T). The format is cell-based, human. The text has this:
Moreover, these compounds appeared to be working at different stages of the viral life-cycle—one at an early post-entry event (CMPD-A) and the other at an assembly or post-integration event in HIV-1 replication (CMPD-D).

The test system of another data set is RSV. The data set is described as follows: CPE assay, RSV. The format is cell-based, respiratory syncytial virus.
A further data set concerns West Nile virus (WNV). Briefly: West Nile Virus virus-like particle (VLP) assay on Vero cells. The format is cell-based. As to conditions: 24 hr, firefly luciferase reporter, 2 replicates. As to the method: as §1
For a further data set, the system named is DENV1. Briefly: CPE assay, DENV1. The format is cell-based. The conditions noted are these: Dengue virus, DENV1, Vero C1008; Vero E6 cells; 3 replicates.
Data set [5] deals with DENV2. Briefly: CPE assay, DENV2. It is filed as cell-based. As to conditions: Dengue virus, DENV2, Vero C1008; Vero E6 cells; 3 replicates.
The nature of data set [6]: Single-round infection assay, infection of U87 CD4-CXCR4 target cells in presence of compound. The conditions noted are these: Human immunodeficiency virus 1, U87.CD4.CXCR4, read-out: IC50 against HIV-1.
Data set [7] concerns DENV2. The data set is described as follows: DENV2 focus reduction assay using BHK cells. As to conditions: Dengue virus, read-out: average IC50, DENV2 focus reduction.

On to `O=C(O)c1ccc(-c2nc(-c3ccc4oc5ccc(-c6nc(-c7ccc(C(=O)O)cc7)[nH]c6-c6ccccc6)cc5c4c3)c(-c3ccccc3)[nH]2)cc1` [CMPD-A, 4,4′-(4,4′-(dibenzo[b,d]furan-2,8-diyl)bis(5-phenyl-1H-imidazole-4,2-diyl))dibenzoic acid], for which the “cellular toxicity against the Vero cells” value in the data set on Vero cells [1] was “no cellular toxicity”. Moreover, the IC50 in the data set on DENV4 was 2.37 µM; in data set [2], 33.3 ± 0.31 µM; in the data set on DENV3, 7.66 µM; with HIV-1IIIB (Human immunodeficiency virus 1, fully infectious virus, P4-R5 MAGI cell line, read-out: IC50 for replication of HIV-1IIIB), 89 ± 3.2 µM; in the data set with DENV (serotypes 1-4), 4.95 µM; with RSV (human respiratory syncytial virus, RSV, Vero cells), 10.2 µM. The IC50 was found to be 30 µM in the data set on West Nile virus (WNV); 8.35 µM with DENV1; 1.43 µM in the data set with DENV2 [5]; 33.6 ± 0.31 µM in data set [6]; 1.25 µM with DENV2 [7]. In the data set on Vero cells [3], the “toxicity” value is recorded as “no toxicity”. Further, the “inhibition of HIV-1 92BR030 replication in PBMCs” value in data set [4] was “displayed no activity; also recorded: unable to inhibit; also recorded: did not affect replication”. Also, the “inhibition of HIV-1IIIB replication” value with HIV-1IIIB (P4-R5 MAGI cells) is “retained the ability to inhibit”. For the same molecule, the cytotoxic concentration (CC50) in “in vitro” worked out at 35 µM. In the data set with producer cells (293T), the “LDH release versus untreated cells” value is reported as “Neither CMPD-A nor CMPD-D promoted LDH release”. The “activity against RSV” value with RSV (CPE assay, up to 100 μM) is recorded as “active against RSV”.
